Test results taken from PubChem BioAssay (NCI).
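The compound was tested at five concentrations on cells cultured in 96-well plates, with a 48-hour exposure period. Definition used: TGI = concentration required for complete inhibition of growth.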

Experiments:
Assay in all cases: DTP human tumour cell line panel, 48 h
HOP-92 NSCLC = test system: HOP-92 NSCLC
CCRF-CEM leukemia = test system: CCRF-CEM leukemia
SK-MEL-28 melanoma = test system: SK-MEL-28 melanoma
PC-3 prostate = test system: PC-3 prostate
ACHN renal = test system: ACHN renal
NCI-H23 lung = test system: NCI-H23 lung
T-47D breast = test system: T-47D breast
DU-145 prostate = test system: DU-145 prostate
M14 melanoma = test system: M14 melanoma
A549 NSCLC = test system: A549 NSCLC
HS 578T breast = test system: HS 578T breast
NCI/ADR-RES ovarian = test system: NCI/ADR-RES ovarian
UACC-257 melanoma = test system: UACC-257 melanoma
HCT-116 colon = test system: HCT-116 colon
CAKI-1 renal = test system: CAKI-1 renal
NCI-H522 lung = test system: NCI-H522 lung
EKVX NSCLC = test system: EKVX NSCLC
SR leukemia = test system: SR leukemia
OVCAR-8 ovarian = test system: OVCAR-8 ovarian
OVCAR-3 ovarian = test system: OVCAR-3 ovarian

Structure (SMILES) | TGI (HOP-92 NSCLC) | TGI (CCRF-CEM leukemia) | TGI (SK-MEL-28 melanoma) | TGI (PC-3 prostate) | TGI (ACHN renal) | TGI (NCI-H23 lung) | TGI (T-47D breast) | TGI (DU-145 prostate) | TGI (M14 melanoma) | TGI (A549 NSCLC) | TGI (HS 578T breast) | TGI (NCI/ADR-RES ovarian) | TGI (UACC-257 melanoma) | TGI (HCT-116 colon) | TGI (CAKI-1 renal) | TGI (NCI-H522 lung) | TGI (EKVX NSCLC) | TGI (SR leukemia) | TGI (OVCAR-8 ovarian) | TGI (OVCAR-3 ovarian)
C/C(=N/NC(=S)Nc1ccc([N+](=O)[O-])cc1)c1cccc(/C(C)=N\NC(=S)Nc2ccc([N+](=O)[O-])cc2)n1 | 11.6 µM | > 55.8 µM | > 100 µM | 18.7 µM | 1.14 µM | 12.2 µM | 24.2 µM | > 37.7 µM | 2.7 µM | 11.4 µM | > 81.7 µM | > 29.9 µM | 13.1 µM | 12.2 µM | 8.06 µM | 21.2 µM | 12.8 µM | 2.33 µM | – | –
COc1cccc(N=Cc2cc3cc(Br)ccc3nc2Cl)c1 | > 50 µM | 48.8 µM | > 50 µM | > 50 µM | – | > 50 µM | > 50 µM | > 50 µM | > 50 µM | > 50 µM | > 50 µM | > 50 µM | > 50 µM | > 50 µM | > 50 µM | > 50 µM | > 50 µM | 20.8 µM | > 50 µM | > 50 µM
N=c1oc2cc(O)ccc2cc1C(=O)NCc1ccccc1 | – | 45 µM | > 100 µM | > 100 µM | > 100 µM | 58.7 µM | 33.7 µM | 56.4 µM | > 100 µM | > 100 µM | 45.4 µM | 53.5 µM | > 100 µM | 71.3 µM | 69.7 µM | 39.1 µM | > 100 µM | 67 µM | 68.1 µM | 57.9 µM
